{"source": "patent US20230083717A1", "about": "“METHODS AND COMPOSITIONS FOR PROMOTING ADIPOCYTE BEIGING” (Flagship Pioneering Innovations VI, LLC, priority 2021, published 2023)", "test_system": "UCP1", "test": "in vivo assay of induction of beige adipocytes in visceral and subcutaneous fat depots", "details": "1 mg/kg intraperitoneal, C57Bl6/J mice, vs control mice", "protocol": "An in vivo assay of induction of beige adipocytes in visceral and subcutaneous fat depots was established using the β3-receptor agonist CL316243. 8-week old male C57Bl6/J mice were dosed with 1 mg/kg CL316243 with intraperitoneal injections, either every day for 1 week or every other day for two weeks. The vehicle was used as a negative control. Following the dosage administration, the mice were sacrificed, and epididymal (visceral) and inguinal (subcutaneous) fat was excised. The expression of UCP1 was assessed in the excised epididymal (visceral) and inguinal (subcutaneous) fat, by western blot and immunohistochemistry. […] The adipose tissue cells in epididymal (visceral) and inguinal (subcutaneous) fat from CL 316234 treated mice were also smaller compared to the cells from control mice (FIG. 3A).", "data": [{"smiles": "C[C@H](Cc1ccc2c(c1)OC(C(=O)O)(C(=O)O)O2)NC[C@H](O)c1cccc(Cl)c1", "note": "[CL 316234]", "values": [{"measurement": "expression of UCP1 by immunohistochemistry in epididymal (visceral) and inguinal (subcutaneous) fat", "value": "increased expression of UCP1"}, {"measurement": "expression of UCP1 by western blot in inguinal and epididymal fat", "value": "increased expression of UCP1"}, {"measurement": "size of adipose tissue cells in epididymal and inguinal fat", "value": "smaller"}]}]}
